Measured values taken from ChEMBL document CHEMBL5338706, “Discovery of a potent and selective proteolysis targeting chimera (PROTAC) degrader of NSD3 histone methyltransferase” (Eur J Med Chem, 2022).
Active and inactive are the calls of the source. The calls are words filed in the database; no cut-off is given here.

Molecular target: T1, Histone-lysine N-methyltransferase NSD3 (Homo sapiens) (UniProt Q9BZ95)
T1 sequence (whole entry): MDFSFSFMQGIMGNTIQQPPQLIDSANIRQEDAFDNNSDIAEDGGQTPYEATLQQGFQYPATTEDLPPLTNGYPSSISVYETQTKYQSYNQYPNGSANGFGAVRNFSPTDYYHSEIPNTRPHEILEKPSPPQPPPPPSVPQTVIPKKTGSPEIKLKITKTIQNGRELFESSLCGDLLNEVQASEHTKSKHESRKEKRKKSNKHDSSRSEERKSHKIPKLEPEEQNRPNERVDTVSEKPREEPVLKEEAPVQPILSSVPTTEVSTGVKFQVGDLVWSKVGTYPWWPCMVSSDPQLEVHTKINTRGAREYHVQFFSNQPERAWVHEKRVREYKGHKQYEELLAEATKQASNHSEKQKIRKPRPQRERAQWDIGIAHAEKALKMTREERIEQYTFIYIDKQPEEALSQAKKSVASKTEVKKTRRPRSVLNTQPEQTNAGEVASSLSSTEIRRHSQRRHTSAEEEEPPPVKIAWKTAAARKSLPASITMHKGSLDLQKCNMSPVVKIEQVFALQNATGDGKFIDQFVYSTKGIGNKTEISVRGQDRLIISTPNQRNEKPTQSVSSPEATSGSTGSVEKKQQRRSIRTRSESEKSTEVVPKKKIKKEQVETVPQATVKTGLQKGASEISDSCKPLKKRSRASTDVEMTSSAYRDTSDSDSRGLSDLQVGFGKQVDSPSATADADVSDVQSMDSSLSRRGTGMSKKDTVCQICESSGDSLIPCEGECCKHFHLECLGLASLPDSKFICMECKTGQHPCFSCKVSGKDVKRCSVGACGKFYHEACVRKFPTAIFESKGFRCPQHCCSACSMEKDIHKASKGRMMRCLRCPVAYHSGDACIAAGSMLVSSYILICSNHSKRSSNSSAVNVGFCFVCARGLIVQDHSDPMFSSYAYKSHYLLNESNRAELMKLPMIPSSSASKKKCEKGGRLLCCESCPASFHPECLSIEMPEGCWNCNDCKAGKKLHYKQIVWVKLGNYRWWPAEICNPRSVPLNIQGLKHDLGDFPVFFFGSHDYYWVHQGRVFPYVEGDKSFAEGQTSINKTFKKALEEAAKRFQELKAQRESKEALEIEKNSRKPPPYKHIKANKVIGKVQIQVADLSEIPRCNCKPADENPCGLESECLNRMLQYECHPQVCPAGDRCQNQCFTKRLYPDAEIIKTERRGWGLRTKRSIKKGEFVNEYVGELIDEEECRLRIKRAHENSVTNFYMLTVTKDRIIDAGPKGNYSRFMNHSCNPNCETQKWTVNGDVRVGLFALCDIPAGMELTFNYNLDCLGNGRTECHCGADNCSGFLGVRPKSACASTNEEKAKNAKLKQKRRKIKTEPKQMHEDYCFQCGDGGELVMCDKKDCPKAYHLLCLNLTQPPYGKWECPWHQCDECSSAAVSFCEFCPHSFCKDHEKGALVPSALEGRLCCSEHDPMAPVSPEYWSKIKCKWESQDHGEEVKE
Test: Induction of NSD3 degradation in human NCI-H1703 cells at 5 uM incubated for 72 hrs by Western blot analysis
Type: cell-based
Conditions: not given

SMILES | NSD3 degradation [%]
Cc1cc(CNCCCCCCCCC(=O)N[C@H](C(=O)N2C[C@H](O)C[C@H]2C(=O)N[C@@H](C)c2ccc(-c3scnc3C)cc2)C(C)(C)C)cc(C)c1-c1ncn(C)c1-c1ccnc2cc(F)ccc12 | 0.7
Cc1cc(CNCCCCCCN2CCN(CC(=O)N[C@H](C(=O)N3C[C@H](O)C[C@H]3C(=O)N[C@@H](C)c3ccc(-c4scnc4C)cc3)C(C)(C)C)CC2)cc(C)c1-c1ncn(C)c1-c1ccnc2cc(F)ccc12 | 37.6
Cc1cc(CNCCCCCC(=O)N[C@H](C(=O)N2C[C@H](O)C[C@H]2C(=O)N[C@@H](C)c2ccc(-c3scnc3C)cc2)C(C)(C)C)cc(C)c1-c1ncn(C)c1-c1ccnc2cc(F)ccc12 | 1.6
Cc1cc(CNCCOCCOCCOCCC(=O)N[C@H](C(=O)N2C[C@H](O)C[C@H]2C(=O)N[C@@H](C)c2ccc(-c3scnc3C)cc2)C(C)(C)C)cc(C)c1-c1ncn(C)c1-c1ccnc2cc(F)ccc12 | 7.4
Cc1cc(CNCCCCCCCC(=O)N[C@H](C(=O)N2C[C@H](O)C[C@H]2C(=O)N[C@@H](C)c2ccc(-c3scnc3C)cc2)C(C)(C)C)cc(C)c1-c1ncn(C)c1-c1ccnc2cc(F)ccc12 | -2.4
Cc1cc(CNCCCCCN2CCN(CC(=O)N[C@H](C(=O)N3C[C@H](O)C[C@H]3C(=O)N[C@@H](C)c3ccc(-c4scnc4C)cc3)C(C)(C)C)CC2)cc(C)c1-c1ncn(C)c1-c1ccnc2cc(F)ccc12 | 53.5
Cc1cc(CNCCCN2CCN(CCC(=O)N[C@H](C(=O)N3C[C@H](O)C[C@H]3C(=O)N[C@@H](C)c3ccc(-c4scnc4C)cc3)C(C)(C)C)CC2)cc(C)c1-c1ncn(C)c1-c1ccnc2cc(F)ccc12 | 25.8
Cc1cc(CNCCCCN2CCN(CC(=O)N[C@H](C(=O)N3C[C@H](O)C[C@H]3C(=O)N[C@@H](C)c3ccc(-c4scnc4C)cc3)C(C)(C)C)CC2)cc(C)c1-c1ncn(C)c1-c1ccnc2cc(F)ccc12 | 11.1
Cc1cc(CNCCOCCOCCOCC(=O)N[C@H](C(=O)N2C[C@H](O)C[C@H]2C(=O)N[C@@H](C)c2ccc(-c3scnc3C)cc2)C(C)(C)C)cc(C)c1-c1ncn(C)c1-c1ccnc2cc(F)ccc12 | 10.7
Cc1cc(CNCCCCCCCCCCCCC(=O)N[C@H](C(=O)N2C[C@H](O)C[C@H]2C(=O)N[C@@H](C)c2ccc(-c3scnc3C)cc2)C(C)(C)C)cc(C)c1-c1ncn(C)c1-c1ccnc2cc(F)ccc12 | 38
Cc1cc(CNCCCCCCCCCCCNc2cccc3c2C(=O)N(C2CCC(=O)NC2=O)C3=O)cc(C)c1-c1ncn(C)c1-c1ccnc2cc(F)ccc12 (stereo not drawn) | 15.6
Cc1cc(CNCCCCCCCCCCCCCCCC(=O)N[C@H](C(=O)N2C[C@H](O)C[C@H]2C(=O)N[C@@H](C)c2ccc(-c3scnc3C)cc2)C(C)(C)C)cc(C)c1-c1ncn(C)c1-c1ccnc2cc(F)ccc12 | 16.4
Cc1cc(CNCCOCCOCCOCCOCCC(=O)N[C@H](C(=O)N2C[C@H](O)C[C@H]2C(=O)N[C@@H](C)c2ccc(-c3scnc3C)cc2)C(C)(C)C)cc(C)c1-c1ncn(C)c1-c1ccnc2cc(F)ccc12 | 7.7
Cc1cc(CNCCCCCCCCCNc2cccc3c2C(=O)N(C2CCC(=O)NC2=O)C3=O)cc(C)c1-c1ncn(C)c1-c1ccnc2cc(F)ccc12 (stereo not drawn) | 1.7
Cc1cc(CNCCCCCCCCCCNc2cccc3c2C(=O)N(C2CCC(=O)NC2=O)C3=O)cc(C)c1-c1ncn(C)c1-c1ccnc2cc(F)ccc12 (stereo not drawn) | 21
Cc1cc(CNCCCCCCCCCCCCCC(=O)N[C@H](C(=O)N2C[C@H](O)C[C@H]2C(=O)N[C@@H](C)c2ccc(-c3scnc3C)cc2)C(C)(C)C)cc(C)c1-c1ncn(C)c1-c1ccnc2cc(F)ccc12 | 45.2
Cc1cc(CNCCCCCCC(=O)N[C@H](C(=O)N2C[C@H](O)C[C@H]2C(=O)N[C@@H](C)c2ccc(-c3scnc3C)cc2)C(C)(C)C)cc(C)c1-c1ncn(C)c1-c1ccnc2cc(F)ccc12 | 6.3
Cc1cc(CNCCCCC(=O)N[C@H](C(=O)N2C[C@H](O)C[C@H]2C(=O)N[C@@H](C)c2ccc(-c3scnc3C)cc2)C(C)(C)C)cc(C)c1-c1ncn(C)c1-c1ccnc2cc(F)ccc12 | -4.2
Cc1cc(CNCCOCCOCCC(=O)N[C@H](C(=O)N2C[C@H](O)C[C@H]2C(=O)N[C@@H](C)c2ccc(-c3scnc3C)cc2)C(C)(C)C)cc(C)c1-c1ncn(C)c1-c1ccnc2cc(F)ccc12 | -7.2
Cc1cc(CNCCCN2CCN(CCCC(=O)N[C@H](C(=O)N3C[C@H](O)C[C@H]3C(=O)N[C@@H](C)c3ccc(-c4scnc4C)cc3)C(C)(C)C)CC2)cc(C)c1-c1ncn(C)c1-c1ccnc2cc(F)ccc12 | 13.8
Cc1cc(CNCCCCCCCCCCCC(=O)N[C@H](C(=O)N2C[C@H](O)C[C@H]2C(=O)N[C@@H](C)c2ccc(-c3scnc3C)cc2)C(C)(C)C)cc(C)c1-c1ncn(C)c1-c1ccnc2cc(F)ccc12 | 1.5
Cc1cc(CNCCCCCCCCCCCCCCC(=O)N[C@H](C(=O)N2C[C@H](O)C[C@H]2C(=O)N[C@@H](C)c2ccc(-c3scnc3C)cc2)C(C)(C)C)cc(C)c1-c1ncn(C)c1-c1ccnc2cc(F)ccc12 | 33.1
Cc1cc(CNCCCCCCCCCC(=O)N[C@H](C(=O)N2C[C@H](O)C[C@H]2C(=O)N[C@@H](C)c2ccc(-c3scnc3C)cc2)C(C)(C)C)cc(C)c1-c1ncn(C)c1-c1ccnc2cc(F)ccc12 | 1.2
Cc1cc(CNCCN2CCN(CCCC(=O)N[C@H](C(=O)N3C[C@H](O)C[C@H]3C(=O)N[C@@H](C)c3ccc(-c4scnc4C)cc3)C(C)(C)C)CC2)cc(C)c1-c1ncn(C)c1-c1ccnc2cc(F)ccc12 | 9.1
Cc1cc(CNCCCCCCCCCCCCNc2cccc3c2C(=O)N(C2CCC(=O)NC2=O)C3=O)cc(C)c1-c1ncn(C)c1-c1ccnc2cc(F)ccc12 (stereo not drawn) | 1.5

Molecular target: T1, Histone-lysine N-methyltransferase NSD3 (Homo sapiens)
Test: Induction of NSD3 degradation in human NCI-H1703 cells at upto 9 uM incubated for 72 hrs by Western blot analysis
Type: cell-based
Conditions: not given

SMILES | Activity
Cc1cc(CN)cc(C)c1-c1ncn(C)c1-c1ccnc2cc(F)ccc12 | inactive

System: NCI-H1703
Test: Antiproliferative activity against human NCI-H1703 cells at upto 10 uM incubated for 6 days by CCK-8 method
Type: functional, cell-based
Conditions: time 6.0 day

SMILES | Activity
Cc1cc(CN)cc(C)c1-c1ncn(C)c1-c1ccnc2cc(F)ccc12 | inactive

System: A549
Test: Antiproliferative activity against human A549 cells at upto 10 uM incubated for 3 days by CCK-8 method
Type: functional, cell-based
Conditions: time 3.0 day

SMILES | Activity
Cc1cc(CN)cc(C)c1-c1ncn(C)c1-c1ccnc2cc(F)ccc12 | inactive
